# Experimental data reported in patent publication US7074938B2, “Method for the synthesis of soritin compounds” (The Regents of the University of California, priority 2002, dated 2006).
# Marks after values point to notes of the source that are not given here.
# How the values were obtained:
# Format in all cases: in vivo
# [1] = system: PMA-induced edema of the mouse ear; experiment: Inhibition of PMA-induced inflammation (edema) of the mouse ear; conditions: 3 h 20 min, in mg (unit assumed)
# Experimental: (§1) The test compound made by the method of the present invention and a known inflammatory agent, phorbol myristate acetate (PMA), are topically applied simultaneously to the left ears of mice. Three hours and 20 minutes following application, the mice are sacrificed. Both left ears and right ears are removed and standard sized bores taken. Edema (inflammation) is measured as the difference in weight between left and right ears. See Van Arman, C. G. (1974) Clin. Pharmacol. Ther. 16:900–904, which is herein incorporated by reference.
# as §1, with “Soritin B and” for “The test compound made by the method of the present invention and”, “(PMA), were” for “(PMA), are”, “mice were” for “mice are”, “ears were” for “ears are”, “(inflammation) was” for “(inflammation) is”
# test ears of mice = experiment: Soritin B coloration and irritation when applied to mouse ear skin
# [2] = system: RTX-induced edema of the mouse ear; experiment: Inhibition of resiniferatoxin (RTX)-induced inflammation (edema) of the mouse ear; conditions: 30 min
# Experimental: Induction of mouse ear edema can be conducted according to known methods. See Inoue, 1-f., N. Nagata, Y. Koshffiara (1993), which is herein incorporated by reference. Soritin compounds to be tested for anti-neurogenic inflammatory activity are topically applied in acetone to the ears of mice in a solution that includes the edema-causing irritant resiniferatoxin (RTX). RTX alone (0.1 μg/ear) or in combination with various dilutions of test compound are applied to both sides of the left ears (5 mice per treatment group) and acetone is applied to all right ears. After a 30-minute incubation, the mice are sacrificed, the ears removed, and bores taken and weighed. Edema is measured by subtracting the weight of the right ear (acetone control) from the weight of the left ear (treated). Results are recorded as % decrease (inhibition) or % increase (potentiation) in edema relative to the control group edema.
# Soritin B was tested for anti-neurogenic inflammatory activity by topically applying in acetone to the ears of mice in a solution that includes the edema-causing irritant resiniferatoxin (RTX) as provided above. See Inoue, 1-f., N. Nagata, Y. Koshffiara (1993), which is herein incorporated by reference. Specifically, RTX alone (0.1 μg/ear) or in combination with various dilutions of Soritin B was applied to both sides of the left ears (5 mice per treatment group) and acetone was applied to all right ears. After a 30-minute incubation, the mice are sacrificed, the ears removed, and bores taken and weighed. Edema was measured by subtracting the weight of the right ear (acetone control) from the weight of the left ear (treated). Results were recorded as % decrease (inhibition) or % increase (potentiation) in edema relative to the control group edema.
smiles,measurement,setting,value
"COC(=O)C(c1c[nH]c2ccccc12)c1c[nH]c2ccccc12 [Soritin B, bis-(1H-indol-3-yl)-acetic acid methyl ester]",Mean edema (difference in weight between left and right ear bores),[1]; 3.12 μg/ear topical with PMA 2.0 μg/ear,10.0**
same,Mean edema (difference in weight between left and right ear bores),[1]; 6.25 μg/ear topical with PMA 2.0 μg/ear,9.7**
same,Mean edema (difference in weight between left and right ear bores),[1]; 12.5 μg/ear topical with PMA 2.0 μg/ear,8.6*
same,Mean edema (difference in weight between left and right ear bores),[1]; 25 μg/ear topical with PMA 2.0 μg/ear,5.9*
same,Mean edema (difference in weight between left and right ear bores),[1]; 50 μg/ear topical with PMA 2.0 μg/ear,3.4*
same,Redness or swelling after overnight exposure,"test ears of mice; 50 μg/ear, overnight exposure, compared to controls",did not result in any discernable redness or swelling
same,Coloration on test ears,"test ears of mice; in acetone alone and in combination with PMA or RTX, from beginning to end of the experiments",did not exhibit any discernable coloration
same,Mean edema (weight of left ear minus right ear bores),[2]; 3.12 μg/ear topical in acetone with RTX 0.1 μg/ear,9.1
same,Mean edema (weight of left ear minus right ear bores),[2]; 6.25 μg/ear topical in acetone with RTX 0.1 μg/ear,6.5*
same,Mean edema (weight of left ear minus right ear bores),[2]; 12.5 μg/ear topical in acetone with RTX 0.1 μg/ear,3.2*
same,Mean edema (weight of left ear minus right ear bores),[2]; 25 μg/ear topical in acetone with RTX 0.1 μg/ear,1.7*
same,Mean edema (weight of left ear minus right ear bores),[2]; 50 μg/ear topical in acetone with RTX 0.1 μg/ear,1.0*
